Where two headings read alike, the source gives them in different places. Marks after values point to notes of the source that are not given here.
How the values were obtained:
[1] = tested on: Propionibacterium acnes NCTC 737; assay: Minimum inhibitory concentration (MIC) assay; assay type: cell-based
Protocol: (§1) The first test organism used was Propionibacterium acnes NCTC 737. This is a propionibacterial strain and is the type strain of the genus; it is fully susceptible to antibiotics. The propionibacteria are clinically significant due to their involvement in acne. They are also opportunistic pathogens in compromised hosts. Activity observed against these micro-organisms is expected to be a good predictor of activity against acne.
(§2) The propionibacteria were cultured and maintained on Wilkins-Chalgren Anaerobe Medium (agar and broth) at pH 6.0; all cultures were incubated anaerobically at 37° C. for 72 hours.
(a) Minimum Inhibitory Concentration (MIC) Assay
This is a standard international method for quantitatively assessing the antimicrobial activity of a compound in a liquid medium. The method used a sterile 96-well microtitre plate, capable of holding about 200 μl of liquid per well. The wells contained liquid culture medium and ranges of decreasing concentrations of the relevant test compound in doubling dilutions (eg 1000, 500, 250, 125 . . . μg/ml, etc, down to 0.49 μg/ml). The culture media were as described above.
(§3) The wells were inoculated with a liquid suspension of freshly grown micro-organism and incubated under the conditions described above. After incubation, the microtitre plate was examined visually (with the aid of a light box) for cloudiness in each well, which would indicate microbial growth. The MIC value was recorded as the lowest concentration of test compound required to inhibit microbial growth, ie the lowest concentration for which the liquid in the well remained clear.
The assays included both negative (culture medium with no micro-organisms) and positive (culture medium plus diluting solvent plus micro-organism) controls.

[2] = tested on: Propionibacterium acnes NCTC 737; assay: Minimum biocidal concentration (MBC) assay; assay type: cell-based
Protocol: as §1, §2
(b) Minimum Biocidal Concentration (MBC) Assay
This assay, normally carried out after an MIC assay, determines the minimum concentration of a compound that is lethal to the micro-organism being tested.
(§4) These samples were then individually sub-cultured on antibiotic-free agar medium, under the incubation conditions described above. Following incubation they were examined visually for microbial growth.

[3] = tested on: Propionibacterium acnes NCTC 737; assay: Disc diffusion assay (DDA) and synergy disc diffusion assay (SDDA); assay type: cell-based
Protocol: (c) Disc Diffusion Assay (DDA)
This is an internationally recognised standard method for qualitatively assessing the antimicrobial activity of a compound or combination of compounds.
A sterile paper disc was impregnated with a sample of the test compound(s) in a suitable solvent (or applied neat) and 30 minutes allowed for any of the solvents to evaporate (where possible). The disc was then placed on an agar plate onto which the test micro-organism had been inoculated. The plate was then incubated under the conditions described above, following which it was examined visually for signs of microbial growth. […] The diameter of this zone of “inhibition” was measured using a ProtoCOL™ automated zone sizer (Synbiosis, Cambridge, UK).
(d) Synergy Disc Diffusion Assay (SDDA)
This is a variation on the DDA method, in which two compounds are tested together for their combined antimicrobial activity.
Two test compounds A and B were placed on a single paper disc and the above described DDA procedure repeated.
The two compounds were then subjected in combination to the SDDA assay described above.
MIC/MBC experiments were performed in duplicate and (S)DDA experiments in triplicate.
The tropolone was dissolved in ethanol.

P. acnes NCTC 737 = assay: Fixed ratio combination MIC/MBC assays; assay type: cell-based, Propionibacterium acnes
Protocol: (§5) (g) Fixed Ratio Combination MIC/MBC Assays
(§6) This method used a sterile 96-well microtitre plate, capable of holding about 200 μl of liquid per well. The wells contained liquid culture medium and ranges of decreasing concentrations of the relevant test compounds alone in doubling dilutions (eg 1000, 500, 250, 125 . . . μg/ml, etc. down to 0.49 μg/ml) or doubling dilutions of a combination of two compounds mixed initially at a fixed concentration ratio (based on molarity in this instance). The culture medium was as described above.
as §3, with “compounds alone or concentrations of the mixture of the two test compounds” for “compound”, “the” for “the lowest concentration for which the”
(§7) The assays were conducted in triplicate and included both negative (culture medium with no micro-organisms) and positive (culture medium plus diluting solvent(s) plus micro-organism) controls.
as §4
(§8) Thus for each mixture tested, the FIC for compound A (FICA)=MIC for (A+B)/MIC for A alone. Similarly the FIC for compound B (FICB)=MIC for (A+B)/MIC for B alone. The overall FICI=FICA+FICB.
(§9) FBC & FBCI were calculated in the same manner using recorded MBC values.

C. striatum NCTC 764 = assay: Fixed ratio combination MIC/MBC assays; assay type: cell-based, Corynebacterium striatum
Protocol: The second test organism used was Corynebacterium striatum NCTC 764. This is a Gram-positive bacterium which is closely related to organisms (aerobic diphtheroids of the genus Corynebacterium) that cause body odour (Guillet et al, Eur J Dermatol, 2000 Jan-Feb, 10(1): 41-2). The C. striatum was cultured and maintained on Mueller-Hinton Medium (agar and broth) at pH 7.3 (±0.1); cultures were incubated aerobically at 37° C. for 18-24 hours.
as §5, §6
as §3, with “compounds alone or concentrations of the mixture of the two test compounds” for “compound”, “the” for “the lowest concentration for which the”
as §7, §4, §8, §9

[4] = P. acnes NCTC 737, compound alone
[5] = compound alone, 12.5 μg per disc (gluconate, picolinate 25 μg; silicate 12.4 μg; chlorophyllin 200 μg)
[6] = copper salt + tropolone versus the greater single zone
[7] = copper salt combined with tropolone on one disc, 12.5 μg each (exceptions b187)
[8] = C. striatum NCTC 764, compound alone

| Compound | MIC [1, 4] | MBC [2, 4] | MIC/MBC ratio [2, 4] | DDA zone of inhibition diameter [3, 5] | SDDA area increase [3, 6] | SDDA increase [3, 6] | (S)DDA with tropolone [3, 7] | MBC (C. striatum NCTC 764; [8]) | MIC (C. striatum NCTC 764; [8]) | further results |
| --- | --- | --- | --- | --- | --- | --- | --- | --- | --- | --- |
| O=C([O-])CN(CCN(CC(=O)[O-])CC(=O)[O-])CC(=O)[O-].[Cu+2].[Na+].[Na+] [EDTA copper (II) disodium salt] | 7.8 µg/mL | >250 µg/mL | <0.03 | 10.03 mm | 328.62% | 14.16 mm | 27.39 mm | – | – | – |
| CC(C)c1cccc(=O)c(O)c1 [Hinokitiol, 2-hydroxy-4-isopropyl-2,4,6-cycloheptatrien-1-one] | – | – | – | – | – | – | – | – | – | MBC (P. acnes NCTC 737; Cutibacterium acnes, NCTC737, compound alone, read-out: MBC): 62.5 µg/mL; MIC (P. acnes NCTC 737; Cutibacterium acnes, NCTC737, compound alone, read-out: MIC): 31.2 µg/mL |
| O.O=C(O)CC(O)(CC(=O)O)C(=O)O.[Ag].[Ag].[Ag] [Silver (I) citrate hydrate] | – | – | – | – | – | – | – | 11.3 µg/mL | 2.83 µg/mL | – |
| Bismuth (III) subnitrate | – | – | – | – | – | – | – | >249.4** μg/ml | >249.4** μg/ml | MBC (P. acnes NCTC 737; compound alone): 15.6 µg/mL; MIC (P. acnes NCTC 737; compound alone): 3.9 µg/mL |
| Copper (II) carbonate basic | 7.8 µg/mL | 31.25 µg/mL | 0.25 | 9.10 mm | 102.17% | 5.58 mm | 18.81 mm | >28.3** μg/ml | >28.3** μg/ml | – |
| Copper (II) citrate dihydrate | – | – | – | – | – | – | – | – | – | MIC [1]: 1.95 µg/mL; MBC [2]: 31.25 µg/mL; MIC/MBC ratio [2]: 0.06; (S)DDA with tropolone [3]: 32.45 mm; DDA zone of inhibition diameter [3]: 32.04 mm; SDDA area increase [3]: 2.60%; SDDA increase [3]: 0.41 mm; MBC (C. striatum NCTC 764): >45** μg/ml; MIC (C. striatum NCTC 764): >45** μg/ml |
| Copper (II) gluconate | 62.5 µg/mL | 125 µg/mL | 0.5 | 26.25 mm | 40.43% | 4.86 mm | 31.11 mm | >116** μg/ml | >116** μg/ml | – |
| Copper (II) picolinate | 62.5 µg/mL | 62.5 µg/mL | 1 | 35.25 mm | −14.13% | −2.58 mm | 32.66 mm | >78.8** μg/ml | >78.8** μg/ml | – |
| Copper (II) salicylate | – | – | – | – | – | – | – | – | – | MIC [1]: 7.8 µg/mL; MBC [2]: 31.25 µg/mL; MIC/MBC ratio [2]: 0.25; (S)DDA with tropolone [3]: 32.87 mm; DDA zone of inhibition diameter [3]: 28.32 mm; SDDA area increase [3]: 34.70%; SDDA increase [3]: 4.55 mm; MBC (C. striatum NCTC 764): >86** μg/ml; MIC (C. striatum NCTC 764): >86** μg/ml |
| Copper (II) silicate | 4.84 µg/mL | 38.75 µg/mL | 0.125 | 33.80 mm | 3.08% | 0.52 mm | 34.32 mm | >35.7** μg/ml | >35.7** μg/ml | – |
| Sodium copper (II) chlorophyllin | 15.6 µg/mL | 31.25 µg/mL | 0.5 | 0.00 mm | 220.07% | 10.44 mm | 23.67 mm | >185** μg/ml | 23.2 µg/mL | – |
